Experimental data taken from ChEMBL document CHEMBL1201862, “PubChem BioAssay data set” (2004).
One block for each compound: values may come before it. Active and inactive are the calls of the source.

Tests used:
Format in all cases: functional
[1] = target: Tyrosine-protein kinase ITK/TSK (Homo sapiens, UniProt Q08881);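 also: affinity for ITK measured as one member of a broad kinase panel profiling binding across the kinome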
[2] = target: Serine/threonine-protein kinase Chk1 (Homo sapiens, UniProt O14757);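 also: measured as one member of a kinome-wide kinase profiling panel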
[3] = target: Inhibitor of nuclear factor kappa-B kinase subunit beta (Homo sapiens, UniProt O14920)
[4] = target: Serine/threonine-protein kinase MRCK alpha (Homo sapiens, UniProt Q5VT25)
Chain of Serine/threonine-protein kinase MRCK alpha (Q5VT25 whole entry): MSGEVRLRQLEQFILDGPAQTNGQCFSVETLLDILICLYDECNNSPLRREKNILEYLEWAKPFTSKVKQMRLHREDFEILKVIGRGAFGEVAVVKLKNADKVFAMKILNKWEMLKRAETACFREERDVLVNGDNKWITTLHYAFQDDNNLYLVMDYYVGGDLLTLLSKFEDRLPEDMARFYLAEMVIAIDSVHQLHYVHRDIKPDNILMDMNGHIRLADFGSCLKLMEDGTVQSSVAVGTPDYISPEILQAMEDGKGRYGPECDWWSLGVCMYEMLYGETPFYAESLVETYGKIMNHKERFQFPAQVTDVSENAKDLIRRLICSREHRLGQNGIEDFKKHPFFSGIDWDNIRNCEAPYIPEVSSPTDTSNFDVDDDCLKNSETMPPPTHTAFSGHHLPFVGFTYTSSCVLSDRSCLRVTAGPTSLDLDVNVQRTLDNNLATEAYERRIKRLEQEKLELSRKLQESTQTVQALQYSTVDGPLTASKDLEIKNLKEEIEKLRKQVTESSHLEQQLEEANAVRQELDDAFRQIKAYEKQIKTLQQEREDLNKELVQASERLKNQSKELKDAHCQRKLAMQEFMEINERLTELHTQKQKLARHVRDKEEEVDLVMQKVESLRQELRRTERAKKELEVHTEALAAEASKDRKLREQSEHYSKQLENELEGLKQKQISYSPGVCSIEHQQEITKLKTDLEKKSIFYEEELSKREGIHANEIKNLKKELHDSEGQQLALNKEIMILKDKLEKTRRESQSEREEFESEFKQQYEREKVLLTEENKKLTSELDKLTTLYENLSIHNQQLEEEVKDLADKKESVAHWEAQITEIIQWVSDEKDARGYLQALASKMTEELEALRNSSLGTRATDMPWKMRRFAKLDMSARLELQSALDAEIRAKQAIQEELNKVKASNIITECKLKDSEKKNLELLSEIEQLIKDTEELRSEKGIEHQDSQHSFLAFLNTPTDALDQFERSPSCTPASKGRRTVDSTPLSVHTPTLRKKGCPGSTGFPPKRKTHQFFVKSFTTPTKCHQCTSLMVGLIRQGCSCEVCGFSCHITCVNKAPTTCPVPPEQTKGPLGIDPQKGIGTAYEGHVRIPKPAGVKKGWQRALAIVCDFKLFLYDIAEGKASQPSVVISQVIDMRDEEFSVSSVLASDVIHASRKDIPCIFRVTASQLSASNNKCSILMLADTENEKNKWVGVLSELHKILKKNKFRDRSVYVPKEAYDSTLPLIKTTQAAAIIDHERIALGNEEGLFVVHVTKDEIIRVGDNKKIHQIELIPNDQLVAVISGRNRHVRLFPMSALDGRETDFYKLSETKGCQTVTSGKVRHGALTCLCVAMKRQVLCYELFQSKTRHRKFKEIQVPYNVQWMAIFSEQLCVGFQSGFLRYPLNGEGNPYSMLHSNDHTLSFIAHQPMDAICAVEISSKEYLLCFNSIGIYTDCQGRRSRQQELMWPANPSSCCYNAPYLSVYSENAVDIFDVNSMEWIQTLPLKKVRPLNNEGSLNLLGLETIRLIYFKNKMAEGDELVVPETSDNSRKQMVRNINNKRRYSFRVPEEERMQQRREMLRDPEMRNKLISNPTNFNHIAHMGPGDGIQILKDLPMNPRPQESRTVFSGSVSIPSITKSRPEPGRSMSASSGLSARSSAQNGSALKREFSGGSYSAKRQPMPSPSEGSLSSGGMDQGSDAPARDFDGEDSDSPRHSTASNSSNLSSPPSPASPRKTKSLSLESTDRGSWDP

[5] = target: Casein kinase II subunit alpha (Homo sapiens, UniProt P68400)
[6] = target: Casein kinase I isoform delta (Homo sapiens, UniProt P48730);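 also: measured as one member (CSNK1D) of a kinome panel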
[7] = target: Serine/threonine-protein kinase PLK4 (Homo sapiens, UniProt O00444);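 also: PLK4 measured as one member of a kinome-wide kinase profiling panel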
[8] = target: Tyrosine-protein kinase Lyn (Homo sapiens, UniProt P07948);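 also: lyn as one member of a kinase panel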
Chain of Tyrosine-protein kinase Lyn (P07948 whole entry): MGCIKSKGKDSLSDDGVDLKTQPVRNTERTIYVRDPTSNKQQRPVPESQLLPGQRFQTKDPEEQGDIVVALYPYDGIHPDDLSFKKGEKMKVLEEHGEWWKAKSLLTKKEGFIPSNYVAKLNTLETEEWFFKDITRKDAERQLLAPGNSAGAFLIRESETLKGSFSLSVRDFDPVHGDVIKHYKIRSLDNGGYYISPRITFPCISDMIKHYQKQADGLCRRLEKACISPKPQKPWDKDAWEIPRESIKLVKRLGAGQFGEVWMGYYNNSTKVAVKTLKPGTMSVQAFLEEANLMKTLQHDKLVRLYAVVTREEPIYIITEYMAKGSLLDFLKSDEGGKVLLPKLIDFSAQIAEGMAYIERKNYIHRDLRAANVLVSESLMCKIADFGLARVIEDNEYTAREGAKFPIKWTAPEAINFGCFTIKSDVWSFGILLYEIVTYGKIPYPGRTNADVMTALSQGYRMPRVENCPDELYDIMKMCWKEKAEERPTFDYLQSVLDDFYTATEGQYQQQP

[9] = target: MAP kinase-activated protein kinase 2 (Homo sapiens, UniProt P49137);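 also: measured as one member of a kinome-wide kinase panel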
[10] = target: Non-receptor tyrosine-protein kinase TYK2 (Homo sapiens, UniProt P29597)
[11] = target: RAC-alpha serine/threonine-protein kinase (Homo sapiens, UniProt P31749);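 also: AKT1 affinity measured as one member of a kinome-wide kinase profiling panel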
[12] = target: Serine/threonine-protein kinase Nek2 (Homo sapiens, UniProt P51955)
[13] = target: Cyclin-dependent kinase 2 (Homo sapiens, UniProt P24941);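 also: CDK2 measured as one member of a broad kinome profiling panel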
[14] = target: Serine/threonine-protein kinase PLK3 (Homo sapiens, UniProt Q9H4B4)
[15] = target: Proto-oncogene tyrosine-protein kinase Src (Homo sapiens, UniProt P12931);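 also: SRC entry within a kinome-wide kinase profiling panel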
Chain of Proto-oncogene tyrosine-protein kinase Src (P12931 2-536 limits assumed): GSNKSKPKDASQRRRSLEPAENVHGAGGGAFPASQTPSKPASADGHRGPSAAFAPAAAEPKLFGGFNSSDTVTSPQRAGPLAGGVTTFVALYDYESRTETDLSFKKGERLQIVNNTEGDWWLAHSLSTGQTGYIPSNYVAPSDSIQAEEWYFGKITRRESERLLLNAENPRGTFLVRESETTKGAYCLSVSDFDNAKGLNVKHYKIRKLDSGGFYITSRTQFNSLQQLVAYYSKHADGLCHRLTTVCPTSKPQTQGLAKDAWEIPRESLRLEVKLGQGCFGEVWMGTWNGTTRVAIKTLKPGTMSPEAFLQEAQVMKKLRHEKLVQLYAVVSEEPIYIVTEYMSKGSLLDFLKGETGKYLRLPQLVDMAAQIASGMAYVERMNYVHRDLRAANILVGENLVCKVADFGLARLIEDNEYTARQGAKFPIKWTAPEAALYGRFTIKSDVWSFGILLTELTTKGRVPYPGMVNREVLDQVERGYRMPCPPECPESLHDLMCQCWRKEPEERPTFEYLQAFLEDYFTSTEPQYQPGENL

[16] = target: Receptor tyrosine-protein kinase erbB-4 (Homo sapiens, UniProt Q15303);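 also: ERBB4 member of a kinome-wide kinase profiling panel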
Chain of Receptor tyrosine-protein kinase erbB-4 (Q15303 whole entry): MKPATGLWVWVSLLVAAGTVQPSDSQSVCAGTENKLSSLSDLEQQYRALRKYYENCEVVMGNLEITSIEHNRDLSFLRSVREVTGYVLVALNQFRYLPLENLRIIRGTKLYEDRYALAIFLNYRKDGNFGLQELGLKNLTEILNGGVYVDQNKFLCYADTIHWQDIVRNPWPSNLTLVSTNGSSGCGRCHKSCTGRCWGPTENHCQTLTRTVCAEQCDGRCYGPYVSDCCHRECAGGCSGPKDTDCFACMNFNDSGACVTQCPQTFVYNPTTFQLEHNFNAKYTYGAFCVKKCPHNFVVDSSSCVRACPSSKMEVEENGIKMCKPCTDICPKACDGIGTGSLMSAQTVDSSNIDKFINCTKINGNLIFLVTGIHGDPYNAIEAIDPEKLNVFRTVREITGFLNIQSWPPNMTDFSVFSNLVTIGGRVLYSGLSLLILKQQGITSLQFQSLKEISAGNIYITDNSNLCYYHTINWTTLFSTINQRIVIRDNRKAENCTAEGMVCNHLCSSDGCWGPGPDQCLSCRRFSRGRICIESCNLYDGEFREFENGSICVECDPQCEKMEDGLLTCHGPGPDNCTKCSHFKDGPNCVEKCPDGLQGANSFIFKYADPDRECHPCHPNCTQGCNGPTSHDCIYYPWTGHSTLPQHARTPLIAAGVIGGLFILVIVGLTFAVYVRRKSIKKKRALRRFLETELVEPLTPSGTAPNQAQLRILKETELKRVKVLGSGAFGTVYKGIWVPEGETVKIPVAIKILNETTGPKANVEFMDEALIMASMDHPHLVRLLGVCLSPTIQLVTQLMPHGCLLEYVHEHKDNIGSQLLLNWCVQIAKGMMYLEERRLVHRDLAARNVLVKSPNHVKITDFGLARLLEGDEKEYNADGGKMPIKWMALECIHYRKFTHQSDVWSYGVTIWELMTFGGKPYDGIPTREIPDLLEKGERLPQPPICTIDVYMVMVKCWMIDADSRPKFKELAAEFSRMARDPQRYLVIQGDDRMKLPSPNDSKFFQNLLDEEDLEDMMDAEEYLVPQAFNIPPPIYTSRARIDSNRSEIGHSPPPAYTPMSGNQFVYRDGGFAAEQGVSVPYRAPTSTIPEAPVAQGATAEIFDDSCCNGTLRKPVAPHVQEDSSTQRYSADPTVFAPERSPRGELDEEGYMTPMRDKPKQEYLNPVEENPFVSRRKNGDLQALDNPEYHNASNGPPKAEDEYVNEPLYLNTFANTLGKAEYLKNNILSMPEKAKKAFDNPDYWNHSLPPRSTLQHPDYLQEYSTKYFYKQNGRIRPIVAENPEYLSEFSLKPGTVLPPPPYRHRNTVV

[17] = target: Serine/threonine-protein kinase Chk2 (Homo sapiens, UniProt O96017);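 also: CHEK2 entry within a kinome-wide screening panel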
[18] = target: Inhibitor of nuclear factor kappa-B kinase subunit epsilon (Homo sapiens, UniProt Q14164); experiment: Navigating the Kinome. Panel member name: IKBKE
[19] = target: Activin receptor type-1 (Homo sapiens, UniProt Q04771); experiment: Navigating the Kinome. Panel member name: ACVR1
[20] = target: Cyclin-dependent kinase 7 (Homo sapiens, UniProt P50613);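 also: value comes from a kinome-wide kinase profiling panel in which CDK7 is one member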
[21] = target: Serine/threonine-protein kinase TAO1 (Homo sapiens, UniProt Q7L7X3)
[22] = target: Misshapen-like kinase 1 (Homo sapiens, UniProt Q8N4C8);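 also: kinome panel screen with MINK as the panel member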
[23] = target: Protein kinase C theta type (Homo sapiens, UniProt Q04759); experiment: Navigating the Kinome. Panel member name: PRKCQ
[24] = target: Serine/threonine-protein kinase N2 (Homo sapiens, UniProt Q16513)
[25] = target: Macrophage-stimulating protein receptor (Homo sapiens, UniProt Q04912); experiment: Navigating the Kinome. Panel member name: MST1R
[26] = target: Dual specificity mitogen-activated protein kinase kinase 2 (Homo sapiens, UniProt P36507); experiment: Navigating the Kinome. Panel member name: MAP2K2
Chain of Dual specificity mitogen-activated protein kinase kinase 2 (P36507 whole entry): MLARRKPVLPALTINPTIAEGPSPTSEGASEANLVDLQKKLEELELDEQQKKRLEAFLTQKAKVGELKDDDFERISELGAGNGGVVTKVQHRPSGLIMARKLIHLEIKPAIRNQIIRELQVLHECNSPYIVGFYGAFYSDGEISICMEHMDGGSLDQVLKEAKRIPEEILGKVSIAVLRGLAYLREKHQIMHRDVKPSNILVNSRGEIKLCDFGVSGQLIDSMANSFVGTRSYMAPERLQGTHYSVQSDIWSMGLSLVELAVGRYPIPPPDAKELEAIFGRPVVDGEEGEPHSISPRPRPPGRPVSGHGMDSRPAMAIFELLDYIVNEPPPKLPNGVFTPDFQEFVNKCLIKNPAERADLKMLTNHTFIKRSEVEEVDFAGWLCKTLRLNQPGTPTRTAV

[27] = target: Cyclin-dependent kinase 9 (Homo sapiens, UniProt P50750);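 also: value from the CDK9 entry of a kinome-spanning kinase panel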
[28] = target: Cell division cycle 7-related protein kinase (Homo sapiens, UniProt O00311);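 also: value obtained from a kinome-wide kinase panel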
Chain of Cell division cycle 7-related protein kinase (O00311 whole entry): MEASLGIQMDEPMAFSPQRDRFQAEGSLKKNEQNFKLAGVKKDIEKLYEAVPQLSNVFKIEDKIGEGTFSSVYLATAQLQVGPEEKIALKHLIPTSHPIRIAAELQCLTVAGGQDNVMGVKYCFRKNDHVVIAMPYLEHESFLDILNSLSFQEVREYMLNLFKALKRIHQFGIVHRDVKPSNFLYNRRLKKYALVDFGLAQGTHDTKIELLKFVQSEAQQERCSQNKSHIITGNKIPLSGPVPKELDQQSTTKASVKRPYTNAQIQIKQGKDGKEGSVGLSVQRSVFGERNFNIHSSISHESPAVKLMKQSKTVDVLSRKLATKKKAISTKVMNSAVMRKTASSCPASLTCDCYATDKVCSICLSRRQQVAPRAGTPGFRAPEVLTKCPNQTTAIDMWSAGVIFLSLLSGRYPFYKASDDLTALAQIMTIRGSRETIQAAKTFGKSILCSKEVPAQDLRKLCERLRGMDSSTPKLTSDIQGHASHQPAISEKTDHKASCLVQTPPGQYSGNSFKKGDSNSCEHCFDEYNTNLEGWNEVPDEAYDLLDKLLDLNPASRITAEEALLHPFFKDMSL

[29] = target: Homeodomain-interacting protein kinase 2 (Homo sapiens, UniProt Q9H2X6);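 also: measured within a kinome-wide kinase profiling panel, HIPK2 being one panel member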
[30] = target: Casein kinase I isoform alpha (Homo sapiens, UniProt P48729)

Compound: NC(COc1cncc(-c2cc3ccncc3s2)c1)Cc1c[nH]c2ccccc12 (stereo not given)
Ki [1]: > 1580 nM (inactive)
Ki [2]: 3980 nM (active)
Ki [3]: > 3160 nM (inactive)
Ki [4]: 200 nM (active)
Ki [5]: 398 nM (active)
Ki [6]: 794 nM (active)
Ki [7]: 631 nM (active)
Ki [8]: > 1580 nM (inactive)
Ki [9]: > 7940 nM (inactive)
Ki [10]: > 2000 nM (inactive)
Ki [11]: 12.6 nM (active)
Ki [12]: > 10000 nM (inactive)
Ki [13]: 158 nM (active)
Ki [14]: 794 nM (active)
Ki [15]: > 2510 nM (inactive)
Ki [16]: > 3980 nM (inactive)
Ki [17]: 398 nM (active)

Ki [18]: 2510 nM (active)
Ki [19]: 2510 nM (active)
Ki [20]: 100 nM (active)
Ki [21]: > 6310 nM (inactive)
Ki [22]: 31.6 nM (active)
Ki [23]: 7.94 nM (active)
Ki [24]: 10 nM (active)
Ki [25]: 79.4 nM (active)
Ki [26]: 316 nM (active)
Ki [27]: 5.01 nM (active)
Ki [28]: 0.316 nM (active)
Ki [29]: 63.1 nM (active)
Ki [30]: 251 nM (active)
Compound: CN(C)C1CCC(Nc2nc(Cl)cc(-c3c[nH]c4ncccc34)n2)CC1 (stereo not given)
